Measured values as given in patent US7276576B1, “Mammalian ICYP (iodocyanopindolol) receptor and its applications” (Dainippon Sumitomo Pharma Co., Ltd., priority 1996, dated 2007).
Read-outs that look alike come from different tables or passages of the source. One block for each molecule: values may come before it.

Key:
[1] = target: T1, [125I]-ICYP specific binding site (SMBP, SM-11044 binding protein) in rat colon smooth muscle membranes (Rattus norvegicus, UniProt A0A8I6A822); assay: [125I]-ICYP saturation and competition binding to rat colon membranes (Example 2); details: for Ki: read-out: Ki on [125I]-ICYP specific binding to rat colon membranes
T1 construct: Membranes from colon smooth muscles were prepared as essentially described by Ek et al., 1986; from tissue
Method: Incubations were carried out at 37° C. for 30 min in a shaking water-bath incubator and terminated by addition of 4 ml of ice-cold Tris-saline followed by rapid filtration under vacuum on Whatman GF/B filter presoaked in Tris-saline containing 0.1% polyethyleneimine (pH 7.4). The filters were washed three times with 4 ml of ice-cold Tris-saline, transferred to plastic tubes and counted in a γ-counter.
Hill coefficient was calculated by linear regression using saturation experiment data. Pseudo-Hill coefficient and IC50 were determined by the computer program, InPlot™ (GraphPad Software, CA, USA).

guinea pig eosinophil = assay: Leukotriene B4 induced guinea pig eosinophil chemotaxis; type: cell-based; details: for Effect of antagonist on the inhibition of eosinophil chemotaxis: inhibition by SM-11044 and BRL-35135A
rat white adipocytes = assay: Lipolysis in rat white adipocytes; type: cell-based; details: for IA, rat white adipocyte lipolysis: relative to isoproterenol; for EC50: Rattus norvegicus, Adipocyte, read-out: pD2, rat white adipocyte lipolysis (converted)
Method: White adipocytes were isolated from epididymal fat pads of male Wistar rats (190-230 g) and lipolysis was determined according to the previous report (Sugasawa T. et al. cited above). The cells were preincubated for 5 min at 37° C. in the presence of 30 μM ascorbic acid, 10 μM phentolamine and 1 μM propranolol.
Agonists were then applied and incubated for 90 min. In the case of testing the effect of cyanopindolol, it was added 5 min before the addition of agonist.
(§1) Agonist concentration-ratios (CR) were determined from the EC50 values of the concentration-response curves of agonists with or without cyanopindolol, according to the method of Arunlakshana et al., 1959.
(§2) The EC50 values were calculated using the computer program, InPlot™.

[2] = tested on: rat colon smooth muscle segment; assay: Relaxation of KCl-induced tonus in rat colon segment (organ bath); details: for IA, rat colon relaxation: relative to isoproterenol; for EC50: Rattus norvegicus, read-out: pD2, rat colon relaxation (converted)
Method: Rat colon segment (2 cm) was suspended in organ bath containing 10 ml modified-Tyrode solution (Sugasawa T. et al. Eur. J. Pharmacol., 1992, 216, 207-215). The Tyrode solution contained 0.5 μM atropine, 0.5 μM desmethylimipramine, 30 μM hydrocortisone, 30 μM ascorbic acid, 10 μM phentolamine and 1 μM propranolol throughout study, in order to inhibit spontaneous contraction, neuronal and extra-neuronal uptake of norepinephrine, oxidation of catecholamines, possible α, β1- and β2-AR effects, respectively.
The relaxant action of agonists was determined by measuring relaxation of KCl (100 mM)-induced tonus evoked by cumulative addition of the agonists as described previously (Sugasawa T. et al. cited above). In the case of testing the effect of cyanopindolol, it was added 5-10 min before the addition of agonist.
as §1, §2

[3] = tested on: [125I]-ICYP specific binding site in rat skeletal muscle membranes; assay: [125I]-ICYP binding to rat skeletal muscle membranes; details: 1 nM [125I]-ICYP; 10 μM 5-HT, 10 μM phentolamine and 20 μM propranolol
Method: Membranes from the colon smooth muscle and from skeletal muscle were prepared from male Wistar rats (300-360 g) as essentially mentioned in example 1.
Saturation binding studies were performed in a final volume of 200 μl of Tris-saline containing 50 μg membrane proteins and different concentrations ([…]) of [^125I]-ICYP, supplemented with 10 μM serotonine (5-HT), 10 μM phentolamine, 20 μM propranolol and 1.1 mM ascorbic acid (pH 7.4), to block possible 5-HT receptors, ARs and oxidation of catecholamines, respectively. The [^125I]-ICYP was used after removing methyl alcohol by compressed air to avoid the influence of the solvent. […] The filters were washed three times with 4 ml of ice-cold Tris-saline, transferred to plastic tubes and counted in a γ-counter.
Competition assays were performed against 1 nM [^125I]-ICYP. Non-specific binding was determined in the presence of 100 μM SM-11044. The inhibition constant, Ki, of a ligand was calculated using the equation described by Cheng and Prusoff (Biochem. Pharmacol., 1973, 22, 3099-3108). Hill coefficient was calculated by linear regression using saturation experiment data. Pseudo-Hill coefficient and IC50 were determined by the computer program, InPlot™ (GraphPad Software, CA, USA).

[4] = target: T2, SMBP in rat colon smooth muscle membranes (Rattus norvegicus, UniProt A0A8I6A822); assay: [125I]-ICYP saturation binding to rat colon membranes (Example 1); details: means ± SD
T2 construct: Membranes from colon smooth muscles were prepared as essentially described by Ek et al., 1986; from tissue
Method: Frozen rat colons (SD strains, male and female) were purchased from Pel-Freeze Biologicals (Arkansas, USA). Membranes from colon smooth muscles were prepared as essentially described by Ek et al., 1986, with the slight following modifications. The colon segment was washed in ice-cold Tris-saline (10 mM Tris/HCl, 154 mM NaCl, (pH 7.4)), cut open longitudinally and the mucosa was removed by scrubbing with a glass slide on ice-cold plastic plate. The smooth muscle preparations were homogenized with a Polytron homogenizer for 1 min. The homogenate was filtered through a gauze and centrifuged (1,500×g for 20 min at 4° C.), the supernatant was collected and centrifuged (50,000×g for 20 min at 4° C.). The pellet comprising the membranes was resuspended in Tris-saline and was stored at −80° C. until use. The protein concentration was determined by Bio-Rad protein assay kit (Bio-Rad USA).
Saturation binding studies were performed in a final volume of 200 μl of Tris-saline containing 50 μg membrane proteins and different concentrations (0.05-25 nM) of [^125I]-ICYP, in the presence of 10 μM serotonine (5-HT), 10 μM phentolamine, 20 μM (±) propranolol and 1.1 mM ascorbic-acid pH 7.4), to block possible 5-HT receptors, ARs and oxidation of catecholamines, respectively. […] The filters were washed three times with 4 ml of ice-cold Tris-saline, transferred to plastic tubes and counted in a γ-counter.

[5] = target: T3, 34 kDa photoaffinity-labeled protein (SMBP) in rat colon membranes (Rattus norvegicus, UniProt A0A8I6A822); assay: Photoaffinity labeling of rat colon membranes with [125I]-ICYP-diazirine; type: binding
T3 construct: Membranes from colon smooth muscles were prepared as essentially described by Ek et al., 1986; from tissue
Method: Incubations were carried out in the presence or absence of competitor at 37° C. for 45 min in the dark in a shaking water-bath incubator and terminated by addition of 10 ml of ice-cold Tris-saline followed by a rapid centrifugation (150,000×g for 10 min at 4° C.). The membranes were irradiated with a UV lamp for 5 min with cooling by circulating water. The labeled membranes were diluted with 10 ml of ice-cold Tris-saline, centrifuged (150,000×g for 30 min at 4° C.), and the pellet was resuspended in Tris-saline and kept at −80° C.
SDS-PAGE was performed under reducing conditions essentially as described by Laemmli, 1970, using 12% polyacrylamide gels (40% T, 2.6% C). […] After electrophoresis, the gels were dried and autoradiographed on X-OMAT™ AR film (Eastman Kodak Co., NY, USA), as specified in example 1, chapter <<(preparative SDS-PAGE>>.

[6] = target: rat SM-11044 binding protein (Ro-SMBP) of rat colon smooth muscle membranes (rat) (UniProt D3ZUD8); assay: WGA-sepharose chromatography, elution with N-acetyl-D-glucosamine
[7] = 1 nM [125I]-ICYP, 10 μM 5-HT, 10 μM phentolamine and 20 μM propranolol
[8] = 10 μM phentolamine and 1 μM propranolol, mean ± SEM
[9] = up to the concentration of 1 mM
[10] = relaxation of KCl (100 mM)-induced tonus, 10 μM phentolamine and 1 μM propranolol, mean ± SEM

T1 sequence (A0A8I6A822 27-587): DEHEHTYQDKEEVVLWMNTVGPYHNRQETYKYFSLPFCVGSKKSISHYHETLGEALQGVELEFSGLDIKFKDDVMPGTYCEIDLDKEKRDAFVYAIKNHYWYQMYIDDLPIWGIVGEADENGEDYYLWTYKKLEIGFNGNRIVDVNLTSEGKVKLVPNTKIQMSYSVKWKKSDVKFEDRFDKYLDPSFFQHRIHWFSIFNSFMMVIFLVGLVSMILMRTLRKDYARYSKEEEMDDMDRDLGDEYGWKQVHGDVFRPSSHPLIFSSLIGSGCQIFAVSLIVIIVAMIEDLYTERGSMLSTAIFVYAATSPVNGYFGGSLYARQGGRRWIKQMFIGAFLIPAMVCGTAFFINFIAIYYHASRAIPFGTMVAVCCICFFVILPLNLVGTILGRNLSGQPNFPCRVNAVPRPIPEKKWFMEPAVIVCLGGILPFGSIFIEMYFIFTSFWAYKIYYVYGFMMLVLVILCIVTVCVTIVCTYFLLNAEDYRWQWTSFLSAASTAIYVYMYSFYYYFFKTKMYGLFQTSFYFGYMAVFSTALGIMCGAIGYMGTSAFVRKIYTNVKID
T2 sequence (A0A8I6A822 27-587): as above
T3 sequence (A0A8I6A822 27-587): as above

Pseudo-Hill coefficient [1, 7]: 0.85 ± 0.24
Ki [1, 7]: 13.3 ± 2.4 µM
Molecule: C=CCc1ccccc1OCC(O)CNC(C)C (racemic) [(±)-alprenolol, alprenolol]
Effect of antagonist on the inhibition of eosinophil chemotaxis (guinea pig eosinophil): antagonized

EC50 (rat white adipocytes; [8]): 1.38 µM
Ki [1, 7]: > 1000 µM
Displacement of [125I]-ICYP specific binding [1, 9]: not displaced
EC50 [2, 10]: 0.229 µM
Molecule: CC(C)NC[C@H](O)c1ccc(O)c(O)c1 (single isomer, unassigned) [(−)-isoproterenol, isoproterenol]
IA, rat white adipocyte lipolysis (rat white adipocytes; [8]): 1.00 ± 0.037
IA, rat colon relaxation [2, 8]: 1.00 ± 0.063
Inhibition of leukotriene B4 induced guinea pig eosinophil chemotaxis (guinea pig eosinophil): no such effect
Displacement of [125I]-ICYP specific binding to skeletal muscle membranes [3]: not displaced by isoproterenol up to concentrations of 10^−4 M

Kd ([1]; Example 2 membranes (Wistar rats), 10 μM 5-HT, 10 μM phentolamine and 20 μM propranolol, read-out: Dissociation constant (Kd), Scatchard plot): 0.011 ± 0.00095 µM
Kd ([4]; Example 1 membranes (SD rats), blockade of adrenergic and serotonine receptors, read-out: Dissociation constant (Kd), Scatchard plot): 0.00722 ± 7e-06 µM
Molecule: CC(C)(C)NCC(O)COc1cccc2[nH]c(C#N)c(I)c12 (single isomer, unassigned; (-)) [[^125I]-ICYP, (−)-3-[^125I] iodocyanopindolol]

Specific binding at equilibrium levels ([1]; 1 nM [125I]-ICYP, 30 min, n=2): 82.7±1.9%
Maximum number of binding sites (Bmax) ([1]; Example 2 membranes, 10 μM 5-HT, 10 μM phentolamine and 20 μM propranolol): 716.7±21.12 fmol/mg protein
Hill coefficient of the saturation curve ([1]; saturation experiment, 30 min incubation): 0.99±0.03
Maximum number of binding sites (Bmax) ([4]; Example 1 membranes): 1.13 ±0.071 pmol/mg membrane protein
Molecule: CC(C)(C)NCC(O)COc1cccc2[nH]c(C#N)c([125I])c12 (single isomer, unassigned; (-)) [[^125I]-ICYP, (−)-3-[^125I] iodocyanopindolol]

Effect on photoaffinity-labeled bands ([5]; competitor 20 μM, 10 μM 5-HT and 10 μM phentolamine): only the 34 kDa band remained visible
Molecule: CC(C)NCC(O)COc1cccc2ccccc12 (centres unmarked) [propranolol]
Effect of antagonist on the inhibition of eosinophil chemotaxis (guinea pig eosinophil): unaffected

percent of the radiolabeled material eluted by the specific sugar [6]: 2.3%
B1: Wheat Germ Agglutinine (WGA)-sepharose 6 MB (protein, UniProt P10968 27-197, looked up)
chain: QRCGEQGSNMECPNNLCCSQYGYCGMGGDYCGKGCQNGACWTSKRCGSQAGGATCTNNQCCSQYGYCGFGAEYCGAGCQGGPCRADIKCGSQAGGKLCPNNLCCSQWGFCGLGSEFCGGGCQSGACSTDKPCGKDAGGRVCTNNYCCSKWGSCGIGPGYCGAGCQSGGCDG

The next lines start with the molecule.

Molecule: CNC[C@H](O)c1ccc(O)c(O)c1 [(−)-epinephrine, epinephrine]
IA, rat white adipocyte lipolysis (rat white adipocytes; [8]): 0.91 ± 0.036
EC50 (rat white adipocytes): 6.92 µM
Ki [1, 7]: > 1000 µM
Displacement of [125I]-ICYP specific binding [1, 9]: not displaced
IA, rat colon relaxation [2, 8]: 0.86 ± 0.137
EC50 [2]: 1.2 µM

Molecule: NC[C@H](O)c1ccc(O)c(O)c1 [(−)-norepinephrine, norepinephrine]
IA, rat white adipocyte lipolysis (rat white adipocytes; [8]): 1.02 ± 0.058
EC50 (rat white adipocytes): 3.98 µM
Ki [1, 7]: > 1000 µM
Displacement of [125I]-ICYP specific binding [1, 9]: not displaced
IA, rat colon relaxation [2, 8]: 0.85 ± 0.168
EC50 [2]: 1.41 µM

Molecule: COC(=O)COc1ccc(CC(C)NCC(O)c2cccc(Cl)c2)cc1 (stereo not drawn) [BRL-35135A, (R*R*)-(+)-4-[2′-[2-hydroxy 2-(3-chlorophenyl)ethylamino]propyl]phenoxyacetic acid methyl ester]
Pseudo-Hill coefficient [1, 7]: 0.80 ± 0.14
Ki [1, 7]: 1.4 ± 0.1 µM
Displacement of [125I]-ICYP specific binding (in words) ([1]; competition binding, no concentration stated): displaced the specific binding
Inhibition of leukotriene B4 induced guinea pig eosinophil chemotaxis (guinea pig eosinophil): inhibiting

Molecule: CC(Cc1ccc(OCC(=O)O)cc1)NCC(O)c1cccc(Cl)c1 (centres unmarked) [BRL-37344]
IA, rat white adipocyte lipolysis (rat white adipocytes; [8]): 0.72 ± 0.0333
EC50 (rat white adipocytes; [8]): 0.0562 µM
Displacement of the photoaffinity-labeled 34 kDa band ([5]; competitor 100 μM, 1.5 nM [125I]-ICYP-diazirine, 10 μM 5-HT, 10 μM phentolamine, 20 μM propranolol): not displaced
Ki [1, 7]: > 100 µM
Displacement of [125I]-ICYP specific binding ([1]; up to the concentration of 100 μM): did not displace
IA, rat colon relaxation [2, 8]: 1.00 ± 0.126
EC50 [2, 10]: 0.0316 µM
Inhibition of leukotriene B4 induced guinea pig eosinophil chemotaxis (guinea pig eosinophil): no such effect
